Laboratory results reported in US20060052375A1, “Bis-alkylbenzylamines” (priority 2002, published 2006).

What was measured:
Assay type in all cases: cell-based
[1] = tested on: Escherichia coli ATCC 10536; experiment: Minimum inhibiting concentration (MIC value) in microtitre plates; set-up: unit not given here; settings: serial dilution 1:2, 48 hours at 37° C., <20% growth compared with growth control
Procedure: (§1) Determination of the Minimum Inhibiting Concentration (MIC Value) in Microtitre Plates Nutrient Medium: Casein/soybean flour peptone bouillon for the preparation of the precultures of the test bacteria and yeast. Examples of Test Organisms: Bacteria: Escherichia coli ATCC 10536 (=EC) Staphylococcus aureus ATCC 6538(=SA) Procedure: The test substances are predissolved in dimethyl sulfoxide (DMSO) and tested in a serial dilution of 1:2. Bacteria and yeast are cultured overnight in CASO bouillon. All test organism suspensions are adjusted to an organism count of 1-5×10^6 CFU/ml with 0.85% sodium chloride solution. The test substances are prepipetted into microtitre plates in an amount of 8 μl per well. The previously adjusted organism suspensions are diluted 1:100 in CASO bouillon and added to the test substances in an amount of 192 μl per well. The test batches are incubated for 48 hours at 37° C. After incubation, the growth is determined by reference to the turbidity of the test batches (optical density) at 620 nm in a microplate reader. The minimum inhibiting concentration (MIC value) is the concentration of substance at which an appreciable inhibition of the growth (<20% growth compared with the growth control) of the test organisms is ascertained. Three microtitre plates are used for each test organism and substance concentration.

[2] = tested on: Staphylococcus aureus ATCC 6538; experiment: as above; set-up: unit not given here; settings: serial dilution 1:2, 48 hours at 37° C., <20% growth compared with growth control
Procedure: as §1

[3] = tested on: Aspergillus niger ATCC 6275; experiment: MIC in agar incorporation test; settings: GC purity 88%
Procedure: (§2) Determination of the Minimum Inhibiting Concentration of the Compound of Formula (3) in Respect of a Wider Spectrum of Organisms The compound of formula (3) (see Table 1; GC purity 88%; prepared in accordance with Example 1) is tested on the microorganisms indicated in Table 3. The test for determining the minimum inhibiting concentration is effected in an agar incorporation test.

[4] = tested on: C. minutissimum ATCC 23348; experiment: MIC in agar incorporation test; settings: GC purity 88%
Procedure: as §2

[5] = tested on: Candida albicans ATCC 10231; experiment: MIC in agar incorporation test; settings: GC purity 88%
Procedure: as §2

[6] = tested on: Corynebacterium xerosis ATCC 373; experiment: MIC in agar incorporation test; settings: GC purity 88%
Procedure: as §2

[7] = tested on: Escherichia coli ATCC 10536; experiment: MIC in agar incorporation test; settings: GC purity 88%
Procedure: as §2

[8] = tested on: Escherichia coli NCTC 8196; experiment: MIC in agar incorporation test; settings: GC purity 88%
Procedure: as §2

[9] = tested on: Klebsiella pneumoniae ATCC 4352; experiment: MIC in agar incorporation test; settings: GC purity 88%
Procedure: as §2

[10] = tested on: Propionibacterium acnes ATCC 6919; experiment: MIC in agar incorporation test; settings: GC purity 88%
Procedure: as §2

[11] = tested on: Proteus vulgaris ATCC 6896; experiment: MIC in agar incorporation test; settings: GC purity 88%
Procedure: as §2

[12] = tested on: Pseudomonas aeruginosa ATCC 15442; experiment: MIC in agar incorporation test; settings: GC purity 88%
Procedure: as §2

[13] = tested on: Salmonella choleraesuis ATCC 9184; experiment: MIC in agar incorporation test; settings: GC purity 88%
Procedure: as §2

[14] = tested on: Staphylococcus aureus ATCC 6538; experiment: MIC in agar incorporation test; settings: GC purity 88%
Procedure: as §2

[15] = tested on: Staphylococcus aureus ATCC 9144; experiment: MIC in agar incorporation test; settings: GC purity 88%
Procedure: as §2

[16] = tested on: Staphylococcus epidermidis ATCC 12228; experiment: MIC in agar incorporation test; settings: GC purity 88%
Procedure: as §2

SMILES | MIC value ATCC 10536 [1] | MIC value ATCC 6538 [2] | also measured
CCCNCc1ccc(-c2ccc(CNCCC)cc2)cc1 [Compound of formula 2] | 15 | 15 | 
CCCCCCCCNCc1ccc(-c2ccc(CNCCCCCCCC)cc2)cc1 [Compound of formula 3, octyl-(4′-octylaminomethyl-biphenyl-4-ylmethyl)-amine] | <3.75 | 7.5 | MIC [3]: >120; MIC [4]: 1.88; MIC [5]: >120; MIC [6]: 1.88; MIC [7]: 3.75; MIC [8]: 3.75; MIC [9]: 7.5; MIC [10]: 3.75; MIC [11]: >120; MIC [12]: >120; MIC [13]: 7.5; MIC [14]: 3.75; MIC [15]: 3.75; MIC [16]: 3.75
CCCCCCCCCCNCc1ccc(-c2ccc(CNCCCCCCCCCC)cc2)cc1 [Compound of formula 4] | 15 | 30 | 
CCCCCCCCCCCNCc1ccc(-c2ccc(CNCCCCCCCCCCC)cc2)cc1 [Compound of formula 5] | 30 | 30 | 
CCCCCCCCCCCCCNCc1ccc(-c2ccc(CNCCCCCCCCCCCCC)cc2)cc1 [Compound of formula 6] | 30 | 30 | 
CC(C)NCc1ccc(-c2ccc(CNC(C)C)cc2)cc1 [Compound of formula 7] | 30 | 15 | 
CCC(C)NCc1ccc(-c2ccc(CNC(C)CC)cc2)cc1 (centres unmarked) [Compound of formula 8] | 60 | 15 | 
CC(C)(C)NCc1ccc(-c2ccc(CNC(C)(C)C)cc2)cc1 [Compound of formula 9] | >120 | 60 | 
CCCC(C)NCc1ccc(-c2ccc(CNC(C)CCC)cc2)cc1 (centres unmarked) [Compound of formula 10] | 30 | 15 | 
CC(C)CCNCc1ccc(-c2ccc(CNCCC(C)C)cc2)cc1 [Compound of formula 11] | 30 | 30 | 
CC(C)CC(C)NCc1ccc(-c2ccc(CNC(C)CC(C)C)cc2)cc1 (centres unmarked) [Compound of formula 12] | 60 | 30 | 
CCCCC(CC)CNCc1ccc(-c2ccc(CNCC(CC)CCCC)cc2)cc1 (centres unmarked) [Compound of formula 13] | 7.5 | 7.5 | 
COCC(C)NCc1ccc(-c2ccc(CNC(C)COC)cc2)cc1 (centres unmarked) [Compound of formula 14] | >120 | 30 | 
c1ccc(CNCc2ccc(-c3ccc(CNCc4ccccc4)cc3)cc2)cc1 [Compound of formula 15] | 120 | 120 | 
c1cc(-c2ccc(CNC3CCCCC3)cc2)ccc1CNC1CCCCC1 [Compound of formula 16] | 120 | 60 | 
c1ccc(CCNCc2ccc(-c3ccc(CNCCc4ccccc4)cc3)cc2)cc1 [Compound of formula 17] | 15 | 15 | 
c1cc(-c2ccc(CN3CCOCC3)cc2)ccc1CN1CCOCC1 [Compound of formula 18] | >120 | >120 | 
CC(=O)N1CCN(Cc2ccc(-c3ccc(CN4CCN(C(C)=O)CC4)cc3)cc2)CC1 [Compound of formula 19] | >120 | >120 | 
c1coc(CNCc2ccc(-c3ccc(CNCc4ccco4)cc3)cc2)c1 [Compound of formula 20] | >120 | >120 | 
CCCCN(C)Cc1ccc(-c2ccc(CN(C)CCCC)cc2)cc1 [Compound of formula 21] | 120 | >120 | 
CCCCCCCCCCCCN(C)Cc1ccc(-c2ccc(CN(C)CCCCCCCCCCCC)cc2)cc1 [Compound of formula 22] | 15 | 15 | 
CCN(CC)Cc1ccc(-c2ccc(CN(CC)CC)cc2)cc1 [Compound of formula 23] | >120 | 15 | 
CCCN(CCC)Cc1ccc(-c2ccc(CN(CCC)CCC)cc2)cc1 [Compound of formula 24] | >120 | >120 | 
CCCCN(CCCC)Cc1ccc(-c2ccc(CN(CCCC)CCCC)cc2)cc1 [Compound of formula 25] | >120 | >120 | 
CCCCCN(CCCCC)Cc1ccc(-c2ccc(CN(CCCCC)CCCCC)cc2)cc1 [Compound of formula 26] | >120 | 30 | 
CCCCCCN(CCCCCC)Cc1ccc(-c2ccc(CN(CCCCCC)CCCCCC)cc2)cc1 [Compound of formula 27] | >120 | 15 | 
CCCCCCCCN(CCCCCCCC)Cc1ccc(-c2ccc(CN(CCCCCCCC)CCCCCCCC)cc2)cc1 [Compound of formula 28] | 15 | 7.5 | 
c1ccc(CN(Cc2ccccc2)Cc2ccc(-c3ccc(CN(Cc4ccccc4)Cc4ccccc4)cc3)cc2)cc1 [Compound of formula 29] | >120 | >120 | 
CN(CCO)Cc1ccc(-c2ccc(CN(C)CCO)cc2)cc1 [Compound of formula 30] | >120 | >120 | 
c1cc(-c2ccc(CN3CCCCCC3)cc2)ccc1CN1CCCCCC1 [Compound of formula 31] | 120 | 60 | 
